Laboratory results taken from patent publication US12331054B2, “Perk inhibiting imidazolopyrazine compounds” (HiberCell, Inc., priority 2019, dated 2025).

Assays:
[1] = target: Recombinant human EIF2AK3 (PERK) catalytic domain (amino acids 536-1116) (Homo sapiens (Human), UniProt Q9NZJ5); assay: PERK In Vitro Activity Assay (isolated), TR-FRET kinase assay; details: isolated PERK enzyme, 1.5 μM ATP, read-out: Biochemical IC50
Text: PERK In Vitro Activity Assay (isolated):
In vitro Inhibition of PERK Enzyme Activity (isolated) Recombinant human EIF2AK2 (PKR) catalytic domain (amino acids 252-551), EIF2AK3 (PERK) catalytic domain (amino acids 536-1116), GFP-eIF2a substrate, and Terbium-labelled phospho-eIF2a antibody is obtained (Invitrogen, Carlsbad, CA).
Express and purify HIS-SUMO-GCN2 catalytic domain (amino acids 584-1019) from E. coli. Perform TR-FRET kinase assays in the absence or presence of inhibitors in a reaction buffer consisting of 50 mM HEPES, pH 7.5, 10 mM MgCb, 1.0 mM EGTA, and 0.01% Brij-35, and 100-200 nM GFP-eIF2a substrate. […] Add test compound, initiate the reaction by addition of enzyme, and incubate at room temperature for 45 minutes. Stop the reaction by addition of EDTA to a final concentration of 10 mM, add Terbium-labelled phospho-eIF2a antibody at a final concentration of 2 nM, and incubate for 90 minutes. Monitor the resulting fluorescence in an EnVison® Multilabel reader (PerkinElmer, Waltham, MA). Determine TR-FRET ratios and the resulting IC50 values using a 4-parameter nonlinear logistic equation as shown: Y=(A+((B−A)/(1+(C/x)AD)))) where, Y=% specific inhibition, A=Bottom of the curve, B=Top of the curve, C=absolute IC50 (concentration causing 50% inhibition), and D=hill slope.

[2] = system: eIF2α in HEK293-EGFP-eIF2α cells; assay: PERK Cellular Assay (HEK293-EGFP-eIF2α cells, tunicamycin-induced ER stress, TR-FRET); assay type: cell-based; details: tunicamycin 2 hours
Experimental: Stable cell lines were created in HEK293 cells using lentiviral particles harboring an expression vector for GFP-eIF2α. Cells were selected using puromycin and enriched using fluorescence activated cell sorting against GFP. HEK293-EGFP-eIF2α cells were plated at 5000 cells/well in 384-well assay plates and incubated overnight at 37° C., 5% CO2. Inhibitor compounds were added to the wells by Echo acoustic dispensing and incubated for 30 minutes at 37° C., 5% CO2 prior to induction of ER stress by addition of tunicamycin to […] for 2 hours. Cells were lysed and TR-FRET was measured in an EnVision plate reader (PerkinElmer). FRET ratio data was normalized to signal from lysates treated with DMSO vehicle control and plotted as percent inhibition against 10-point; 3-fold dilution series of inhibitors. IC50 values were calculated using 4-parameter logistical fitting in XLFit.

Sequence of Recombinant human EIF2AK3 (PERK) catalytic domain (amino acids 536-1116) (Q9NZJ5 536-1116): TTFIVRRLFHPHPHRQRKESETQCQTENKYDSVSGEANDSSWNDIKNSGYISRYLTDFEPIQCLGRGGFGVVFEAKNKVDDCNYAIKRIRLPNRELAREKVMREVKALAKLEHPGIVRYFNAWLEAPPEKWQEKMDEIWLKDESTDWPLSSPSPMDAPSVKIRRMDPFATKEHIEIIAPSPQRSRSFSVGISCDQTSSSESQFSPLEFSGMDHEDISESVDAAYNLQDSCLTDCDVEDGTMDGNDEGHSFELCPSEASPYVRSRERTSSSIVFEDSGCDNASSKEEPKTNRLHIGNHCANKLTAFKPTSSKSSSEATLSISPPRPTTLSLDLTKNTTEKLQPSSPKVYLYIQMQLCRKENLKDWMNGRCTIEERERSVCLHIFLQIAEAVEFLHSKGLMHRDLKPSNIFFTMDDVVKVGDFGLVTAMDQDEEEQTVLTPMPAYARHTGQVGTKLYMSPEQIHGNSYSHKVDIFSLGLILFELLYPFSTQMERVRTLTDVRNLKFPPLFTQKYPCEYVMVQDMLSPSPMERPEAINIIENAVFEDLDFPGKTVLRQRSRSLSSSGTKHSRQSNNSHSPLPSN

IC50 [1] [nM] | Structure (SMILES) | IC50 [2] [nM]
1 to 25 | Cc1cc(NC(=O)C(O)c2cccc(F)c2)ccc1-c1nc(C)n2ccnc(N)c12 (centres unmarked) [Example 1, N-(4-(8-amino-3-methylimidazo[1,5-a]pyrazin-1-yl)-3-methylphenyl)-2-(3-fluorophenyl)-2-hydroxyacetamide] | 26 to 50
1 to 25 | [2H]C([2H])([2H])c1nc(-c2ccc(NC(=O)C(O)c3cccc(Cl)c3)cc2F)c2c(N)ncc(C(F)(F)F)n12 (centres unmarked) [Example 82, N-[4-[8-amino-3-(trideuteriomethyl)-5-(trifluoromethyl)imidazo[1,5-a]pyrazin-1-yl]-3-fluoro-phenyl]-2-(3-chlorophenyl)-2-hydroxy-acetamide] | 1 to 25
1 to 25 | [2H]C([2H])([2H])c1nc(-c2ccc(NC(=O)C(O)c3cccc(C(F)(F)F)c3)cc2F)c2c(N)ncc(C)n12 (centres unmarked) [Example 94, N-[4-[8-amino-5-methyl-3-(trideuteriomethyl)imidazo[1,5-a]pyrazin-1-yl]-3-fluoro-phenyl]-2-hydroxy-2-[3-(trifluoromethyl)phenyl]acetamide] | 1 to 25
1 to 25 | Cc1cc(NC(=O)C(O)c2cccc(Cl)c2)ccc1-c1nc(C)n2c(C)cnc(N)c12 (centres unmarked) [Example 38, N-(4-(8-amino-3,5-dimethylimidazo [1,5-a]pyrazin-1-yl)-3-methyl-phenyl)-2-(3-chlorophenyl)-2-hydroxyacetamide] | 1 to 25
1 to 25 | [2H]C([2H])([2H])c1nc(-c2ccc(NC(=O)C(O)c3cccc(C(F)(F)F)c3)cc2C)c2c(N)ncc(C)n12 (centres unmarked) [Example 17, N-[4-[8-amino-5-methyl-3-(trideuteriomethyl)imidazo[1,5-a]pyrazin-1-yl]-3-methyl-phenyl]-2-hydroxy-2-[3-(trifluoromethyl)phenyl]acetamide] | 101 to 250
– | Cc1cn2c(C)nc(-c3ccc(NC(=O)C(O)c4cccc(F)c4)c(F)c3)c2c(N)n1 (centres unmarked) [Example 118, N-(4-(8-amino-3,6-dimethyl-imidazo[1,5-a]pyrazin-1-yl)-2-fluorophenyl)-2-(3-fluorophenyl)-2-hydroxy-acetamide] | 4000 to 5000
– | [2H]C([2H])([2H])c1nc(-c2ccc(NC(=O)C(O)c3cccc(F)c3)nc2C)c2c(N)ncc(C)n12 (centres unmarked) [Example 172, N-[5-[8-amino-5-methyl-3-(trideuteriomethyl)imidazo[1,5-a]pyrazin-1-yl]-6-methyl-2-pyridyl]-2-(3-fluorophenyl)-2-hydroxy-acetamide] | 501 to 1000
1000 to 2000 | [2H]C([2H])([2H])c1nc(-c2ccc(NC(=O)C(O)c3cccc(C(F)(F)F)c3)cc2C)c2c(N)ncc(C)n12 (centres unmarked) [Example 16, N-[4-[8-amino-5-methyl-3-(trideuteriomethyl)imidazo[1,5-a]pyrazin-1-yl]-3-methyl-phenyl]-2-hydroxy-2-[3-(trifluoromethyl)phenyl]acetamide] | > 5000
1 to 25 | [2H]C([2H])([2H])c1nc(-c2ccc(NC(=O)C(O)c3cccc(F)c3)c(F)c2F)c2c(N)ncc(Cl)n12 (centres unmarked) [Example 136, N-[4-[8-amino-5-chloro-3-(trideuteriomethyl)imidazo[1,5-a]pyrazin-1-yl]-2,3-difluoro-phenyl]-2-(3-fluoro-phenyl)-2-hydroxy-acetamide] | 1 to 25
26 to 50 | [2H]C([2H])([2H])c1nc(-c2ccc(NC(=O)C(O)c3cccc(F)c3)c(F)c2)c2c(N)ncc(C)n12 (centres unmarked) [Example 122, N-[4-[8-amino-5-methyl-3-(trideuteriomethyl)imidazo[1,5-a]pyrazin-1-yl]-2-fluoro-phenyl]-2-(3-fluorophenyl)-2-hydroxy-acetamide] | 251 to 500
1 to 25 | [2H]C([2H])([2H])c1nc(-c2ccc(NC(=O)C(O)c3cccc(C(F)(F)F)c3)c(F)c2F)c2c(N)nc(C)cn12 (centres unmarked) [Example 150, N-[4-[8-amino-6-methyl-3-(trideuteriomethyl)imidazo[1,5-a]pyrazin-1-yl]-2,3-difluoro-phenyl]-2-hydroxy-2-[3-(trifluoromethyl)phenyl]acetamide] | 26 to 50
– | [2H]C([2H])([2H])c1nc(-c2ccc(NC(=O)C(O)c3cc(F)cc(F)c3)cc2F)c2c(N)ncc(Cl)n12 (centres unmarked) [Example 109, N-[4-[8-amino-5-chloro-3-(trideuteriomethyl)imidazo[1,5-a]pyrazin-1-yl]-3-fluoro-phenyl]-2-(3,5-difluoro-phenyl)-2-hydroxy-acetamide] | 1 to 25
– | [2H]C([2H])([2H])c1nc(-c2ccc(NC(=O)C(O)c3cccc(F)c3)c(F)c2)c2c(N)nc(C)cn12 (centres unmarked) [Example 120, N-[4-[8-amino-6-methyl-3-(trideuteriomethyl)imidazo[1,5-a]pyrazin-1-yl]-2-fluorophenyl]-2-(3-fluorophenyl)-2-hydroxy-acetamide] | 1000 to 2000
– | [2H]C([2H])([2H])c1nc(-c2ccc(NC(=O)C(O)c3cccc(C(F)(F)F)c3)cc2F)c2c(N)ncc(Cl)n12 (centres unmarked) [Example 101, N-[4-[8-amino-5-chloro-3-(trideuteriomethyl)imidazo[1,5-a]pyrazin-1-yl]-3-fluoro-phenyl]-2-hydroxy-2-[3-(trifluoromethyl)phenyl]acetamide] | 1 to 25
– | Cc1cn2c(C3CC(C)(O)C3)nc(-c3ccc(NC(=O)C(O)c4cccc(F)c4)cc3C)c2c(N)n1 (centres unmarked) [Example 24, N-(4-(8-amino-3-(3-hydroxy-3-methylcyclobutyl)-6-methylimidazo [1,5-a]pyrazin-1-yl)-3-methyl-phenyl)-2-(3-fluorophenyl)-2-hydroxyacetamide] | 101 to 250
– | [2H]C([2H])([2H])c1nc(-c2ccc(NC(=O)C(O)c3cccc(C(F)(F)F)c3)cc2F)c2c(N)nc(C)cn12 (centres unmarked) [Example 97, N-[4-[8-amino-6-methyl-3-(trideuteriomethyl)imidazo[1,5-a]pyrazin-1-yl]-3-fluoro-phenyl]-2-hydroxy-2-[3-(trifluoromethyl)phenyl]acetamide] | 251 to 500
– | [2H]C([2H])([2H])c1nc(-c2ccc(NC(=O)C(O)c3cccc(F)c3)c(F)c2)c2c(N)nc(C)cn12 (centres unmarked) [Example 121, N-[4-[8-amino-6-methyl-3-(trideuteriomethyl)imidazo[1,5-a]pyrazin-1-yl]-2-fluorophenyl]-2-(3-fluorophenyl)-2-hydroxy-acetamide] | 51 to 100
– | Cc1cn2c(C3CC(C)(O)C3)nc(-c3ccc(NC(=O)C(O)c4cccc(F)c4)cc3C)c2c(N)n1 (centres unmarked) [Example 25, N-(4-(8-amino-3-(3-hydroxy-3-methylcyclobutyl)-6-methylimidazo [1,5-a]pyrazin-1-yl)-3-methyl-phenyl)-2-(3-fluorophenyl)-2-hydroxyacetamide] | 1000 to 2000
1 to 25 | [2H]C([2H])([2H])c1nc(-c2ccc(NC(=O)C(O)c3cccc(Cl)c3)cc2C)c2c(N)ncc(C(F)(F)F)n12 (centres unmarked) [Example 40, N-[4-[8-amino-3-(trideuteriomethyl)-5-(trifluoromethyl)imidazo[1,5-a]pyrazin-1-yl]-3-methyl-phenyl]-2-(3-chlorophenyl)-2-hydroxy-acetamide] | –
– | Cc1cn2c(C)nc(-c3ccc(NC(=O)C(O)c4cccc(F)c4)c(F)c3)c2c(N)n1 (centres unmarked) [Example 119, N-(4-(8-amino-3,6-dimethyl-imidazo[1,5-a]pyrazin-1-yl)-2-fluorophenyl)-2-(3-fluorophenyl)-2-hydroxy-acetamide] | 26 to 50
1 to 25 | [2H]C([2H])([2H])c1nc(-c2ccc(NC(=O)C(O)c3cccc(Cl)c3)cc2F)c2c(N)ncc(Cl)n12 (centres unmarked) [Example 86, N-[4-[8-amino-5-chloro-3-(trideuteriomethyl)imidazo[1,5-a]pyrazin-1-yl]-3-fluoro-phenyl]-2-(3-chlorophenyl)-2-hydroxy-acetamide] | –
– | [2H]C([2H])([2H])c1nc(-c2ccc(NC(=O)C(O)c3cc(F)cc(F)c3)cc2C)c2c(N)ncc(Cl)n12 (centres unmarked) [Example 49, N-[4-[8-amino-5-chloro-3-(trideuteriomethyl)imidazo[1,5-a]pyrazin-1-yl]-3-methyl-phenyl]-2-(3,5-difluoro-phenyl)-2-hydroxy-acetamide] | 1 to 25
– | [2H]C([2H])([2H])c1nc(-c2ccc(NC(=O)C(O)c3cccc(F)c3)cc2C)c2c(N)ncc(C)n12 (centres unmarked) [Example 11, N-(4-(8-amino-5-methyl-3-(trideuteriomethyl)imidazo[1,5-a]pyrazin-1-yl)-3-methylphenyl)-2-(3-fluorophenyl)-2-hydroxyacetamide] | 1 to 25
